Results reported in ChEMBL document CHEMBL2046307, “Plumbagin induces apoptosis in Her2-overexpressing breast cancer cells through the mitochondrial-mediated pathway” (J Nat Prod, 2012).
The source made the active and inactive calls. The rule behind the calls is not given here.

Columns and labels:
BT-474 [1] = test: Induction of apoptosis in Her2-overexpressing human BT474 cells assessed as increase in BaK protein level after 24 hrs by Western blot analysis; format: functional, cell-based
BT-474 [2] = test: Induction of apoptosis in Her2-overexpressing human BT474 cells assessed as increase in Bax protein level after 24 hrs by Western blot analysis; format: functional, cell-based
SK-BR-3 [3] = test: Induction of apoptosis in Her2-overexpressing human SKBR3 cells assessed as increase in caspase activity after 6 hrs by fluorescence analysis relative to control; format: functional
BT-474 [4] = test: Induction of apoptosis in Her2-overexpressing human BT474 cells assessed as increase in caspase activity at 10 uM after 6 hrs by fluorescence analysis relative to control; format: functional
SK-BR-3 [5] = test: Induction of apoptosis in Her2-overexpressing human SKBR3 cells assessed as increase in caspase activity after 6 hrs by fluorescence analysis; format: functional, cell-based
BT-474 [6] = test: Induction of apoptosis in Her2-overexpressing human BT474 cells assessed as increase in caspase activity after 6 hrs by fluorescence analysis; format: functional, cell-based
BT-474 [7] = test: Induction of apoptosis in Her2-overexpressing human BT474 cells assessed as accumulation at subG1 phase by propidium iodide staining-based flow cytometric analysis; format: functional, cell-based
SK-BR-3 [8] = test: Induction of cell cycle arrest in Her2-overexpressing human SKBR3 cells assessed as increase in DNA accumulation at subG1 phase at 10 uM after 24 hrs by propidium iodide staining-based flow cytometric analysis (reference value: 11%); format: functional
SK-BR-3 [9] = test: Induction of cell cycle arrest in Her2-overexpressing human SKBR3 cells assessed as increase in DNA accumulation at subG1 phase at 5 uM after 24 hrs by propidium iodide staining-based flow cytometric analysis (reference value: 11%); format: functional
SK-BR-3 [10] = test: Induction of cell cycle arrest in Her2-overexpressing human SKBR3 cells assessed as increase in DNA accumulation at subG1 phase at 2.5 uM after 24 hrs by propidium iodide staining-based flow cytometric analysis (reference value: 11%); format: functional
SK-BR-3 [11] = test: Induction of cell cycle arrest in Her2-overexpressing human SKBR3 cells assessed as increase in DNA accumulation at subG1 phase after 24 hrs by propidium iodide staining-based flow cytometric analysis; format: functional
SK-BR-3 [12] = test: Anticlonogenic activity in Her2-overexpressing human SKBR3 cells assessed as inhibition of colony formation at 1 uM after 6 hrs followed by washout measured after 16 days by crystal violet staining; format: functional
BT-474 [13] = test: Anticlonogenic activity in Her2-overexpressing human BT474 cells assessed as inhibition of colony formation at 1 uM after 6 hrs followed by washout measured after 16 days by crystal violet staining; format: functional
BT-474 [14] = test: Cytotoxicity against Her2-overexpressing human BT474 cells after 72 hrs by MTT assay; format: functional, cell-based; conditions: BT-474, 72 h
SK-BR-3 [15] = test: Cytotoxicity against Her2-overexpressing human SKBR3 cells after 72 hrs by MTT assay; format: functional, cell-based; conditions: SK-BR-3, 72 h
BT-474 [16] = test: Cytotoxicity against Her2-overexpressing human BT474 cells after 24 hrs by MTT assay; format: functional, cell-based; conditions: BT-474, 24 h
SK-BR-3 [17] = test: Cytotoxicity against Her2-overexpressing human SKBR3 cells after 24 hrs by MTT assay; format: functional, cell-based; conditions: SK-BR-3, 24 h
MDA-MB-231 = test: Antitumor activity against human MDA-MB-231 cells xenografted in nude mouse assessed as decrease in tumor volume; format: functional; set-up: scale not given: the % may be the effect or the level left
BT-474 [18] = test: Ratio of IC50 for Her2-overexpressing human BT474 cells after 24 hrs to IC50 for Her2-overexpressing human BT474 cells after 72 hrs; format: functional
SK-BR-3 [19] = test: Cytotoxicity against Her2-overexpressing human SKBR3 cells after 24 to 72 hrs by MTT assay; format: functional, cell-based
BT-474 [20] = test: Cytotoxicity against Her2-overexpressing human BT474 cells after 24 to 72 hrs by MTT assay; format: functional, cell-based
BT-474 [21] = test: Anticlonogenic activity in Her2-overexpressing human BT474 cells assessed as inhibition of colony formation after 6 hrs followed by washout measured after 16 days by crystal violet staining; format: functional, cell-based
SK-BR-3 [22] = test: Anticlonogenic activity in Her2-overexpressing human SKBR3 cells assessed as inhibition of colony formation after 6 hrs followed by washout measured after 16 days by crystal violet staining; format: functional, cell-based
SK-BR-3 [23] = test: Induction of apoptosis in Her2-overexpressing human SKBR3 cells assessed as decrease in Bcl-2 protein level after 24 hrs by Western blot analysis; format: functional, cell-based
BT-474 [24] = test: Induction of apoptosis in Her2-overexpressing human BT474 cells assessed as decrease in Bcl-2 protein level after 24 hrs by Western blot analysis; format: functional, cell-based
SK-BR-3 [25] = test: Induction of apoptosis in Her2-overexpressing human SKBR3 cells assessed as increase in BaK protein level after 24 hrs by Western blot analysis; format: functional, cell-based
SK-BR-3 [26] = test: Induction of apoptosis in Her2-overexpressing human SKBR3 cells assessed as increase in Bax protein level after 24 hrs by Western blot analysis; format: functional, cell-based

CC1=CC(=O)c2c(O)cccc2C1=O [PLUMBAGIN]
Activity (BT-474 [1]): Dose-dependent effect | Activity (BT-474 [2]): Dose-dependent effect | fold change (FC) (SK-BR-3 [3]): 4 | fold change (FC) (BT-474 [4]): 5 | Activity (SK-BR-3 [5]): Dose-dependent effect | Activity (BT-474 [6]): Dose-dependent effect | Activity (BT-474 [7]): inactive | Activity (SK-BR-3 [8]): 73% | Activity (SK-BR-3 [9]): 43% | Activity (SK-BR-3 [10]): 20% | Activity (SK-BR-3 [11]): Dose-dependent effect | inhibition at 1 µM (SK-BR-3 [12]): 50% | inhibition at 1 µM (BT-474 [13]): 40% | IC50 (BT-474 [14]): 800 nM | IC50 (SK-BR-3 [15]): 1800 nM | IC50 (BT-474 [16]): 1800 nM | IC50 (SK-BR-3 [17]): 3200 nM | Activity (MDA-MB-231): 70% | Ratio IC50 (BT-474 [18]): 2 | Activity (SK-BR-3 [19]): Dose-dependent effect | Activity (BT-474 [20]): Dose-dependent effect | Activity (BT-474 [21]): Dose-dependent effect | Activity (SK-BR-3 [22]): Dose-dependent effect | Activity (SK-BR-3 [23]): Active | Activity (BT-474 [24]): Active | Activity (SK-BR-3 [25]): Dose-dependent effect | Activity (SK-BR-3 [26]): Dose-dependent effect
